Data: patent US11236068B2, “Fused ring compounds” (Genentech, Inc., priority 2018, dated 2022)

Target: K-Ras G12C (Homo sapiens (Human), UniProt P01116, G12C)
Assay: Western blot assay for in cell alkylation of K-Ras G12C (HCC1171 cells)
Type: cell-based
Details: 18 hours at 37° C., 7 point dose response
Description: HCC1171 cells were maintained in RPMI1640 supplemented with 10% FBS. Cells were plated in a 96-well plate at 20,000 cells/well and the following day compounds were added to the cells. After 18 hours at 37° C., cells were lysed in RIPA buffer (Sigma RO278) with 0.5% SDS and protease/phosphatase inhibitor cocktail. After through mixing to enable complete lysis, the lysates were cleared by centrifugation before 20 µl was transferred from each well and combined with loading buffer and reducing agent. After heating for 10 minutes at 95° C., […] of each sample was loaded onto a 4-20% Tris-Glycine gel and electrophoresed at 110V for 165 minutes in SDS-PAGE running buffer. Gels were transferred to a nitrocellulose membrane, blocked for 1 hour and stained overnight at 4° C. with primary antibody against K-Ras (polyclonal Proteintech 12063-1-AP). The membrane was then washed thoroughly and counterstained with anti-rabbit IRDye 800CW (LI-COR 926-32211) for one hour at room temperature. After final washes, the membrane was imaged on a LI-COR Odyssey CLx at medium resolution. […] To quantify this affect, the LICOR software was used to draw a rectangle over alkylated and unalkylated bands for each well and measured the total fluorescent intensity (FI) in each of these bands. The following formula was then used to calculate % alkylation: FI(alkylated)/(FI(alkylated)+FI(unalkylated))*100 for each well.
A 7 point dose response curve was used to determine the IC50 for each compound. Cell alkylation data are presented below in Table 3.

Sequence of K-Ras G12C (P01116 other isoform, or with tags, fused parts or gaps G12C): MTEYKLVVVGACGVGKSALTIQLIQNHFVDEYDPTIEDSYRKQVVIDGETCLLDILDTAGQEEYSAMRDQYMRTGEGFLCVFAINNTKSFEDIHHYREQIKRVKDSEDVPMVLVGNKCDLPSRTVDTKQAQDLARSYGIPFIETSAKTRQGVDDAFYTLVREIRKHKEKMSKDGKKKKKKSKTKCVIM

Point of comparison: C=CC(=O)N1CCN(c2ncnc3cc(-c4nc(N)cc(CC)c4C(F)(F)F)c(Cl)cc23)CC1 [Example 52, 1-[4-[7-[6-amino-4-ethyl-3-(trifluoromethyl)-2-pyridyl]-6-chloro-quinazolin-4-yl]piperazin-1-yl]prop-2-en-1-one], EC50 86 nM. Against it:
- C=CC(=O)N1CCN(c2nc(OC[C@@H]3[C@@H](F)CCN3C)nc3cc(-c4nc(N)ccc4C(F)(F)F)c(Cl)cc23)CC1 [Example 77, 1-[4-[7-[6-amino-3-(trifluoromethyl)-2-pyridyl]-6-chloro-2-[[(2R,3S)-3-fluoro-1-methyl-pyrrolidin-2-yl]methoxy]quinazolin-4-yl]piperazin-1-yl]prop-2-en-1-one] — 3.4-fold lower, 25 nM
- C=C(F)C(=O)N1CCN(c2ncnc3cc(-c4nc(N)cc(C)c4C(F)(F)F)c(Cl)cc23)CC1 [Example 26, 1-(4-[7-[6-amino-4-methyl-3-(trifluoromethyl)pyridin-2-yl]-6-chloroquinazolin-4-yl]piperazin-1-yl)-2-fluoroprop-2-en-1-one] — 1.6-fold higher, 140 nM
- C=CC(=O)N1CCN(c2ncnc3cc(-c4nc(N)ccc4C(F)(F)F)c(Cl)cc23)[C@@H](C)C1 [Example 54, 1-[(3S)-4-[7-[6-amino-3-(trifluoromethyl)pyridin-2-yl]-6-chloroquinazolin-4-yl]-3-methylpiperazin-1-yl]prop-2-en-1-one] — 1.6-fold higher, 140 nM
- C=CC(=O)N1CCN(c2ncnc3c(F)c(-c4nc(N)cc5cccc(F)c45)c(Cl)cc23)CC1 [Example 27, 1-[4-[7-(3-amino-8-fluoro-1-isoquinolyl)-6-chloro-8-fluoro-quinazolin-4-yl]piperazin-1-yl]prop-2-en-1-one] — 1.6-fold higher, 140 nM
- C=CC(=O)N1CCN(c2ncnc3cc(-c4nc(N)cc5cnccc45)c(Cl)cc23)CC1 [Example 4, 1-[4-[7-(3-amino-2,6-naphthyridin-1-yl)-6-chloro-quinazolin-4-yl]piperazin-1-yl]prop-2-en-1-one] — higher, > 30000 nM
- C=CC(=O)N1C[C@H](C)N(c2ncnc3cc(-c4nc(N)cc(C)c4C(F)(F)F)c(Cl)cc23)[C@@H](C)C1 [Example 60, 1-[(3S,5S)-4-[7-[6-amino-4-methyl-3-(trifluoromethyl)-2-pyridyl]-6-chloro-quinazolin-4-yl]-3,5-dimethyl-piperazin-1-yl]prop-2-en-1-one] — within 1.5-fold, 72 nM
- C=CC(=O)N1CCN(c2ncnc3cc(-c4nc(N)cc(C)c4F)c(Cl)cc23)CC1 [Example 11, 1-(4-(7-(6-amino-3-fluoro-4-methylpyridin-2-yl)-6-chloroquinazolin-4-yl)piperazin-1-yl)prop-2-en-1-one] — 55-fold higher, 4700 nM
- C=CC(=O)N1CCN(c2ncnc3cc(-c4nc(N)cc5ccc(F)cc45)c(Cl)cc23)CC1 [Example 49, 1-[4-[7-(3-amino-7-fluoroisoquinoline-1-yl)-6-chloroquinazolin-4-yl]piperazin-1-yl]prop-2-en-1-one] — 2.9-fold higher, 250 nM
- C=CC(=O)N1CCN(c2ncnc3cc(-c4nc(NC)ccc4C(F)(F)F)c(Cl)cc23)CC1 [Example 53, 1-(4-[6-chloro-7-[6-(methylamino)-3-(trifluoromethyl)pyridin-2-yl]quinazolin-4-yl]piperazin-1-yl)prop-2-en-1-one] — 40-fold higher, 3400 nM
- C=CC(=O)N1CCN(c2ncnc3cc(-c4nc(N)ccc4CC(F)(F)F)c(Cl)cc23)CC1 [Example 51, 1-[4-[7-[6-amino-3-(2,2,2-trifluoroethyl)-2-pyridyl]-6-chloro-quinazolin-4-yl]piperazin-1-yl]prop-2-en-1-one] — 33-fold higher, 2800 nM
- C=CC(=O)N1CCN(c2ncnc3cc(-c4nc(NC(C)=O)ccc4C)c(Cl)cc23)CC1 [Example 16, N-(6-[6-chloro-4-[4-(prop-2-enoyl)piperazin-1-yl]quinazolin-7-yl]-5-methylpyridin-2-yl)acetamide] — 95-fold higher, 8200 nM
- C=CC(=O)N1CCN(c2nc(NC[C@@H](F)C(C)(C)O)nc3cc(-c4nc(N)cc(C)c4F)c(Cl)cc23)CC1 [Example 12, (R)-1-(4-(7-(6-amino-3-fluoro-4-methylpyridin-2-yl)-6-chloro-2-((2-fluoro-3-hydroxy-3-methylbutyl)amino)quinazolin-4-yl)piperazin-1-yl)prop-2-en-1-one] — 94-fold higher, 8100 nM
- C=C(F)C(=O)N1CCN(c2nc(OC[C@@H]3CCCN3C)nc3cc(-c4nc(N)cc(C)c4C(F)(F)F)c(Cl)cc23)CC1CF (stereo partly drawn) [Example 57, 1-[4-[7-[6-amino-4-methyl-3-(trifluoromethyl)-2-pyridyl]-6-chloro-2-[[(2S)-1-methylpyrrolidin-2-yl]methoxy]quinazolin-4-yl]-2-(fluoromethyl)piperazin-1-yl]-2-fluoro-prop-2-en-1-one] — 2.7-fold higher, 230 nM
- C=CC(=O)N1CCN(c2nc(OC[C@@H]3[C@H]4C[C@H]4CN3C)nc3cc(-c4nc(N)ccc4C(F)(F)F)c(Cl)cc23)CC1 [Example 78a, 1-(4-(7-(6-amino-3-(trifluoromethyl)pyridin-2-yl)-6-chloro-2-(((1S,2S,5R)-3-methyl-3-azabicyclo[3.1.0]hexan-2-yl)methoxy)quinazolin-4-yl)piperazin-1-yl)prop-2-en-1-one] — 1.5-fold lower, 56 nM
- C=CC(=O)N1CCN(c2ncnc3cc(-c4nc(N)ccc4OC(F)(F)F)c(Cl)cc23)CC1 [Example 40, 1-(4-[7-[6-amino-3-(trifluoromethoxy)pyridin-2-yl]-6-chloroquinazolin-4-yl]piperazin-1-yl)prop-2-en-1-one] — 13-fold higher, 1100 nM
- C=CC(=O)N1CCN(c2nc(OCCN3CC(CF)C3)nc3cc(-c4nc(N)ccc4C(F)(F)F)c(Cl)cc23)CC1 [Example 76, 1-(4-(7-(6-amino-3-(trifluoromethyl)pyridin-2-yl)-6-chloro-2-(2-(3-(fluoromethyl)azetidin-1-yl)ethoxy)quinazolin-4-yl)piperazin-1-yl)prop-2-en-1-one] — 1.6-fold higher, 140 nM
- C=CC(=O)N1CCN(c2ncnc3cc(-c4nc(N)cc(C(F)(F)F)c4C)c(Cl)cc23)CC1 [Example 33, 1-(4-[7-[6-amino-3-methyl-4-(trifluoromethyl)pyridin-2-yl]-6-chloroquinazolin-4-yl]piperazin-1-yl)prop-2-en-1-one] — 24-fold higher, 2100 nM
- C=CC(=O)N1CCN(c2ncnc3cc(-c4nc(N)cc(C)c4C(F)(F)F)c(Cl)cc23)CC1 [Example 44, 1-(4-[7-[6-amino-4-methyl-3-(trifluoromethyl)pyridin-2-yl]-6-chloroquinazolin-4-yl]piperazin-1-yl)prop-2-en-1-one] — within 1.5-fold, 62 nM
- C=CC(=O)N1CCN(c2nc(OC[C@@H]3C[C@@H](F)CN3CCOC)nc3cc(-c4nc(N)ccc4C(F)(F)F)c(Cl)cc23)CC1 [Example 89, 1-[4-[7-[6-amino-3-(trifluoromethyl)-2-pyridyl]-6-chloro-2-[[(2S,4R)-4-fluoro-1-(2-methoxyethyl)pyrrolidin-2-yl]methoxy]quinazolin-4-yl]piperazin-1-yl]prop-2-en-1-one] — 3-fold lower, 29 nM
- C=CC(=O)N1CCN(c2ncnc3cc(-c4nc(N)ccc4C)c(Cl)cc23)CC1 [Example 15, 1-(4-(7-(6-amino-3-methylpyridin-2-yl)-6-chloroquinazolin-4-yl)piperazin-1-yl)prop-2-en-1-one] — 33-fold higher, 2800 nM
- C=CC(=O)N1CCN(c2ncnc3cc(-c4nc(N)ccc4C(F)(F)F)c(C4CC4)cc23)CC1 [Example 29, 1-[4-[7-[6-amino-3-(trifluoromethyl)-2-pyridyl]-6-cyclopropyl-quinazolin-4-yl]piperazin-1-yl]prop-2-en-1-one] — 9.7-fold higher, 830 nM
